{"source": "paper PMC8200211", "about": "“PTD4 Peptide Increases Neural Viability in an In Vitro Model of Acute Ischemic Stroke” (International Journal of Molecular Sciences, 2021)", "key": {"[1]": {"test_system": "primary neural cortical cultures", "assay": "Peptide neurotoxicity, CellTiter-Blue viability assay", "type": "cell-based, Wistar rat", "conditions": "for Neural viability, relative to non-insulted control: 100 µM; for Concentration at which neurotoxic impact was visible: tested 1, 10, 50, 100, 200 µM", "procedure": "(§1) All animal experiments were conducted in accord with the permission of the Local Bioethics Committee. Primary cortical neurons were isolated from Wistar rat embryos at embryonic day 18.5 (E18.5). Pregnant females were euthanized in a CO2 chamber, and the embryos were immediately removed in order to microdissect the brains. The cortices were excised, transferred to Hank’s Balanced Salt Solution (HBSS, Gibco, Waltham, MA, USA), supplemented with a 1% penicillin/streptomycin mixture (Gibco, Waltham, MA, USA) and washed. Afterwards, the tissue was trypsinized (2.5% trypsin, Gibco, Waltham, MA, USA) for 10 min at 37 °C, and homogenized gently by re-suspension with a sterile tip of a pipette. The cell suspension was centrifuged in 300 rcf for 4 min and re-suspended in Neurobasal-A medium (Gibco, Waltham, MA, USA) supplemented to final concentration with 1 mM sodium pyruvate, 12.5 mM glucose 2% B27 (Gibco, Waltham, MA, USA), […] L-glutamine, […], a 1% penicillin/streptomycin mixture, and seeded in a 24-well plate poly-D-lysine (PDL)-coated (BioCoat, Corning, Tewksburry, MA, USA) in the number of 200,000 cells per well. The neural cultures were incubated in a CO2 chamber (5%, 95% air balance, 98% humidity, 37 °C) for 14 days and were used on culture day in vitro (DIV) 14–15.\nThe influence of all peptides on neural viability was assessed by exposing the cells to different peptide concentrations (1, 10, 50, 100, 200 µM) for 20 h at 37 °C in a 5% CO2 chamber. The assessments were performed in 24-well PDL-coated plates (BioCoat, Corning, Tewksbury, MA, USA) with a working volume of 500 µL/well. The respective peptide solutions were prepared in culture medium so that in all wells only 50 µL of the medium was exchanged, including control (untreated) samples.\nNeural viability was assessed in CellTiter-Blue® (CTB) assay (Promega, cat #G8080, Madison, WI, USA) after 20 h long incubation of cells in standard Neurobasal medium after stressful conditions. The test was performed in 24-well PDL-coated plates (BioCoat, Corning, Tewksbury, MA, USA) and according to the manufacturer’s guideline, which included adding the solution to the neural culture well, followed by incubation for 1–4 h at 37 °C (5% CO2). The fluorescence intensity of the CTB reagent was measured spectrofluorimetrically (560ex/590em) and was proportional to the number of viable cells. The results were calculated as a percentage taking the respective control (non-insulted) measurement as 100% viability.\nEach cell viability experiment was performed in at least three biologically independent experiments, in each of which neural cultures were obtained from one female rat. Each female originated from different breeding parents. In one experiment, the viability assessments for each condition were conducted in three plates, with three–four replicate wells per plate. For every plate, relative viability for one condition were averaged, and then used to calculate averaged results for all plates in an experiment. The final values were calculated from averaged results of independent experiments and shown as a mean ± standard deviation (SD), n = 3. The data were analyzed by a two-way ANOVA test with p-value < 0.05 values considered statistically significant."}, "[2]": {"test_system": "pre-insulted rat primary neural culture", "assay": "Pro-viable effect of peptides in a multifactorial in vitro model of acute ischemic stroke, CellTiter-Blue", "type": "cell-based, Wistar rat", "conditions": "1 h, then 50 µM peptide 20 h; for Neuroprotection against excitotoxicity: 400 µM glutamic acid, 800 µM NMDA or 800 µM kainic acid", "procedure": "as §1, with “14–15. […]” for “14–15.”\nNeural viability was assessed in CellTiter-Blue® (CTB) assay (Promega, cat #G8080, Madison, WI, USA) after 20 h long incubation of cells in standard Neurobasal medium after stressful conditions. […] The fluorescence intensity of the CTB reagent was measured spectrofluorimetrically (560ex/590em) and was proportional to the number of viable cells. The results were calculated as a percentage taking the respective control (non-insulted) measurement as 100% viability. […]"}, "cell membrane": {"test_system": "cell membrane", "conditions": "previous reports; cited from earlier work", "description": "Comparing the native Tat(49–57)-NH2 and PTD4, the latter appeared as a better-performing neuroprotectant in the AIS model. Mechanistically, this may indicate a possible correlation between neuroprotection and the structural and acid-base peptide properties."}}, "note": "“Also recorded” adds a separate entry of the source. Like-named read-outs stand apart in the source and are kept apart here. Where no end group is shown, it is not given here.", "data": [{"compound": "C#CC(=O)N[C@@H](CCCNC(=N)N)C(=O)N[C@@H](CCCCN)C(=O)N[C@@H](CCCCN)C(=O)N[C@@H](CCCNC(=N)N)C(=O)N[C@@H](CCCNC(=N)N)C(=O)N[C@@H](CCC(N)=O)C(=O)N[C@@H](CCCNC(=N)N)C(=O)N[C@@H](CCCNC(=N)N)C(=O)N[C@@H](CCCNC(=N)N)C(N)=O", "note": "[Prop-Tat]", "values": [{"measurement": "Neural viability, relative to non-insulted control", "setting": "[1]", "result": "< 10", "unit": "%"}, {"measurement": "Concentration at which neurotoxic impact was visible", "setting": "[1]; 20 h exposure, CTB assay", "result": 1000, "unit": "nM"}]}, {"compound": "CC[C@H](C)[C@H](NC(=O)[C@H](CCCCN)NC(=O)[C@H](CCCCN)NC(=O)[C@H](C)NC(=O)[C@H](CC(C)C)NC(=O)[C@H](C)NC(=O)[C@H](C)NC(=O)[C@H](CC(C)C)NC(=O)[C@H](C)NC(=O)[C@H](CCCCN)NC(=O)[C@H](CC(C)C)NC(=O)[C@H](CC(N)=O)NC(=O)[C@@H](NC(=O)[C@H](CCCCN)NC(=O)CNC(=O)[C@H](CC(C)C)NC(=O)[C@H](CC(C)C)NC(=O)[C@H](Cc1ccc(O)cc1)NC(=O)CNC(=O)[C@H](C)N)[C@@H](C)CC)C(=O)N[C@@H](CC(C)C)C(N)=O", "note": "[TP10, reference compound]", "values": [{"measurement": "Neural viability, relative to non-insulted control", "setting": "[1]", "result": "< 10", "unit": "%"}, {"measurement": "Neurotoxicity ranking among the peptides tested", "setting": "[1]; 1-200 µM, 20 h exposure, CTB assay", "result": "highest toxicity"}, {"measurement": "Concentration at which neurotoxic impact was visible", "setting": "[1]; 20 h exposure, CTB assay", "result": 1000, "unit": "nM"}]}, {"compound": "RKKR^52RQRRR^57-amide [Tat(49–57)-NH2, reference compound]", "values": [{"measurement": "Neuroprotection against excitotoxicity", "setting": "[2]", "result": "significant neuroprotection"}, {"measurement": "Neurotoxicity at higher concentrations", "setting": "[1]; >100 µM, 20 h exposure, CTB assay, n = 3", "result": "most toxic impact; also recorded: significantly neurotoxic"}]}, {"compound": "YARAAARQARA-NH2 [PTD4, less basic Ala-substituted analogue of Tat(49–57)-NH2, cell-penetrating peptide]", "values": [{"measurement": "Neuroprotection against excitotoxicity", "setting": "[2]", "result": "significant neuroprotection"}, {"measurement": "Pro-viable activity against acidosis", "setting": "[2]; acidosis pH 6.35, 200 mM sodium lactate", "result": "displayed pro-viable activity"}, {"measurement": "Efficiency of peptide translocation across the cell membrane compared to Tat(49–57)-NH2", "setting": "cell membrane", "result": "almost thirty times higher"}, {"measurement": "Highest non-toxic concentration", "setting": "[1]", "result": 50, "unit": "µM"}, {"measurement": "Neurotoxicity at higher concentrations", "setting": "[1]", "result": "significantly neurotoxic"}, {"measurement": "Neurotoxicity at low concentrations", "setting": "[1]", "result": "negligible"}, {"measurement": "Neurotoxicity ranking among the peptides tested", "setting": "[1]", "result": "lowest neurotoxicity"}]}]}
